Results: PubChem BioAssay AID248 (DTP/NCI, 2004)
Values joined by “and” are separate entries in the source; they are usually repeats but may differ in a detail not shown here. Equal entries are not always repeated. Inconclusive results and toxic doses are left out. Cut-off read from the data, not from the text of the source: active = T/C of 150% or more; inactive = T/C below 125%.

Test system: L1210 leukemia ip in BDF1 mice, survival T/C
Assay: NCI In Vivo Anticancer Drug Screen. Data for tumor model L1210 Leukemia (intraperitoneal) in B6D2F1 (BDF1) mice
Details: endpoint: mean survival time, higher = longer survival
Procedure, shortened: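 Transplantable tumor model; survival measured in treated vs vehicle control mice. Value = treated/control.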

[1] = dose: 25.0 mg/kg/injection, schedule: Q01DX009 (ip), vehicle: Klucel (hydroxypropylcellulose) (HPC)
[2] = dose: 50.0 mg/kg/injection, schedule: Q01DX009 (ip), vehicle: Klucel (hydroxypropylcellulose) (HPC)
[3] = dose: 100.0 mg/kg/injection, schedule: Q01DX009 (ip), vehicle: Klucel (hydroxypropylcellulose) (HPC)
[4] = dose: 100.0 mg/kg/injection, schedule: Q04DX003 (ip), vehicle: Klucel (hydroxypropylcellulose) (HPC)
[5] = dose: 100.0 mg/kg/injection, schedule: Q04DX003 (ip), vehicle: saline with Tween-80
[6] = dose: 200.0 mg/kg/injection, schedule: Q04DX003 (ip), vehicle: saline with Tween-80
[7] = dose: 200.0 mg/kg/injection, schedule: Q01DX009 (ip), vehicle: Klucel (hydroxypropylcellulose) (HPC)
[8] = dose: 400.0 mg/kg/injection, schedule: Q01DX009 (ip), vehicle: Klucel (hydroxypropylcellulose) (HPC)
[9] = dose: 100.0 mg/kg/injection, schedule: Q04DX002 (ip), vehicle: Klucel (hydroxypropylcellulose) (HPC)
[10] = dose: 200.0 mg/kg/injection, schedule: Q04DX002 (ip), vehicle: Klucel (hydroxypropylcellulose) (HPC)
[11] = dose: 400.0 mg/kg/injection, schedule: Q04DX002 (ip), vehicle: Klucel (hydroxypropylcellulose) (HPC)
[12] = dose: 50.0 mg/kg/injection, schedule: Q01DX009 (ip), vehicle: saline with Tween-80
[13] = dose: 100.0 mg/kg/injection, schedule: Q01DX009 (ip), vehicle: saline with Tween-80
[14] = dose: 200.0 mg/kg/injection, schedule: Q01DX009 (ip), vehicle: saline with Tween-80

Measured: T/C

CC(=O)Nc1c(Cl)c(Cl)c2[nH]c(=O)c3cc(Cl)ccc3c2c1Cl
inactive: dose: 75.0 mg/kg/injection, schedule: Q01DX001 (ip), vehicle: carboxymethylcellulose (CMC) 87 % of control | dose: 150.0 mg/kg/injection, schedule: Q01DX001 (ip), vehicle: carboxymethylcellulose (CMC) 95 % of control | dose: 300.0 mg/kg/injection, schedule: Q01DX001 (ip), vehicle: carboxymethylcellulose (CMC) 88 % of control

C=C1C=C(C)N(C(=O)c2ccccc2)CCN1C(=O)c1ccccc1
inactive: dose: 100.0 mg/kg/injection, schedule: Q04DX003 (ip), vehicle: saline 96 % of control | dose: 200.0 mg/kg/injection, schedule: Q04DX003 (ip), vehicle: saline 95 % of control | dose: 400.0 mg/kg/injection, schedule: Q04DX003 (ip), vehicle: saline 106 % of control

O=C1CCCC(=O)C1C(C[N+](=O)[O-])c1ccccc1 (centres undefined)
inactive: dose: 12.5 mg/kg/injection, schedule: Q01DX009 (ip), vehicle: Klucel (hydroxypropylcellulose) (HPC) 97 % of control | [1] 93 % of control | [2] 90 % of control | [3] 88 % of control | [4] 98 % of control

CCOC(=O)c1cnc(SC)nc1Nc1ccccc1
inactive: [5] 94 % of control | [6] 100 % of control | dose: 400.0 mg/kg/injection, schedule: Q04DX003 (ip), vehicle: saline with Tween-80 86 % of control

CC1(C)CC(=O)CC(C)(C)ON1
inactive: dose: 100.0 mg/kg/injection, schedule: Q04DX002 (ip), vehicle: saline with Tween-80 99 % of control | dose: 200.0 mg/kg/injection, schedule: Q04DX002 (ip), vehicle: saline with Tween-80 99 % of control | dose: 400.0 mg/kg/injection, schedule: Q04DX002 (ip), vehicle: saline with Tween-80 99 % of control

COc1ccccc1OCCN1Cc2ccccc2C1
inactive: [5] 96 % of control | [6] 92 % of control

c1ccc(P(CN(CCN(CP(c2ccccc2)c2ccccc2)CP(c2ccccc2)c2ccccc2)CP(c2ccccc2)c2ccccc2)c2ccccc2)cc1
inactive: dose: 100.0 mg/kg/injection, schedule: Q04DX002 (sc), vehicle: olive oil, sesame oil, peanut oil 100 % of control | dose: 200.0 mg/kg/injection, schedule: Q04DX002 (sc), vehicle: olive oil, sesame oil, peanut oil 110 % of control | dose: 400.0 mg/kg/injection, schedule: Q04DX002 (sc), vehicle: olive oil, sesame oil, peanut oil 107 % of control

CC(Cl)CN(CC(C)Cl)C(=O)Oc1ccccc1[N+](=O)[O-] (centres undefined)
inactive: [3] 93 % of control | [7] 104 % of control | [8] 93 % of control

C1=NCCc2cc3[nH]c4ccccc4c3cc21
inactive: [1] 100 % of control | [2] 100 % of control | dose: 50.0 mg/kg/injection, schedule: Q04DX003 (ip), vehicle: Klucel (hydroxypropylcellulose) (HPC) 98 % of control | dose: 100.0 mg/kg/injection, schedule: Q01DX001 (ip), vehicle: Klucel (hydroxypropylcellulose) (HPC) 95 % of control | [3] 102 % of control | [4] 97 % of control | dose: 200.0 mg/kg/injection, schedule: Q01DX001 (ip), vehicle: Klucel (hydroxypropylcellulose) (HPC) 91 % of control

CCCN=Cc1cnc(C#N)c(N)n1
inactive: [9] 97 % of control | [10] 94 % of control | [11] 97 % of control

CCOC(=O)Cc1cnc(C)[nH]c1=O
inactive: [3] 95 % of control | [7] 101 % of control | [8] 96 % of control

Cc1ccc(C)c(NC(=O)Oc2cc(C)c(Cl)cc2C(C)C)c1
inactive: [3] 92 % of control and 102 % of control | [4] 103 % of control | [7] 100 % of control and 87 % of control | dose: 200.0 mg/kg/injection, schedule: Q04DX003 (ip), vehicle: Klucel (hydroxypropylcellulose) (HPC) 115 % of control | [8] 102 % of control and 90 % of control | dose: 400.0 mg/kg/injection, schedule: Q04DX003 (ip), vehicle: Klucel (hydroxypropylcellulose) (HPC) 97 % of control

Cc1c(C)c(C)c(CC2(C)CSC2)c(CC2(C)CSC2)c1C
inactive: [9] 100 % of control | [10] 91 % of control | [11] 94 % of control

Cc1ccc(N=Nc2ccc(C)cc2NC(=O)/C=C/c2ccccc2)cc1
inactive: [12] 96 % of control | [13] 90 % of control | [14] 86 % of control

CCOCc1nc2nc(Cl)c(Cl)nc2[nH]1
inactive: dose: 25.0 mg/kg/injection, schedule: Q04DX003 (ip), vehicle: saline with Tween-80 97 % of control | [12] 106 % of control | dose: 50.0 mg/kg/injection, schedule: Q04DX003 (ip), vehicle: saline with Tween-80 97 % of control | [13] 116 % of control | [5] 97 % of control | [14] 87 % of control | [6] 95 % of control and 97 % of control

C#CCN1CCCC1
inactive: dose: 12.5 mg/kg/injection, schedule: Q04DX003 (ip), vehicle: saline 92 % of control | dose: 25.0 mg/kg/injection, schedule: Q04DX003 (ip), vehicle: saline 92 % of control | dose: 50.0 mg/kg/injection, schedule: Q04DX003 (ip), vehicle: saline 95 % of control

CCCCCCCCCCCCCCCCCC[N+]1(CC)CCOCC1
inactive: dose: 3.13 mg/kg/injection, schedule: Q04DX002 (ip), vehicle: carboxymethylcellulose (CMC) 103 % of control and 87 % of control | dose: 6.25 mg/kg/injection, schedule: Q01DX001 (ip), vehicle: carboxymethylcellulose (CMC) 101 % of control | dose: 6.25 mg/kg/injection, schedule: Q01DX009 (ip), vehicle: carboxymethylcellulose (CMC) 93 % of control and 95 % of control | dose: 6.25 mg/kg/injection, schedule: Q04DX002 (ip), vehicle: carboxymethylcellulose (CMC) 100 % of control and 92 % of control | dose: 6.25 mg/kg/injection, schedule: Q04DX003 (ip), vehicle: carboxymethylcellulose (CMC) 98 % of control | dose: 12.5 mg/kg/injection, schedule: Q01DX001 (ip), vehicle: carboxymethylcellulose (CMC) 94 % of control | dose: 12.5 mg/kg/injection, schedule: Q01DX009 (ip), vehicle: carboxymethylcellulose (CMC) 93 % of control and 89 % of control | dose: 12.5 mg/kg/injection, schedule: Q04DX003 (ip), vehicle: carboxymethylcellulose (CMC) 100 % of control | dose: 25.0 mg/kg/injection, schedule: Q01DX001 (ip), vehicle: carboxymethylcellulose (CMC) 90 % of control | dose: 25.0 mg/kg/injection, schedule: Q04DX002 (ip), vehicle: carboxymethylcellulose (CMC) 94 % of control and 92 % of control | dose: 25.0 mg/kg/injection, schedule: Q04DX003 (ip), vehicle: carboxymethylcellulose (CMC) 89 % of control

O[C@H]1[C@H]2c3cc4c(cc3CN3CCC(=C[C@@H]1O)[C@H]23)OCO4
inactive: dose: 50.0 mg/kg/injection, schedule: Q01DX Z (ip), vehicle: steriod suspending solution 120 % of control | dose: 75.0 mg/kg/injection, schedule: Q01DX Z (ip), vehicle: steriod suspending solution 96 % of control and 105 % of control | dose: 100.0 mg/kg/injection, schedule: Q01DX Z (ip), vehicle: steriod suspending solution 114 % of control
